Source: PMC6987128, “Target protein-oriented isolation of Hes1 dimer inhibitors using protein based methods” (Scientific Reports, 2020)
pIC50: −log10 of the molar value. Like-named read-outs stand apart in the source and are kept apart here.

What was measured:
[1] = target: T1, Hes1 dimer formation (Hes1-Hes1 interaction) (Rattus norvegicus, UniProt Q04666); experiment: Hes1-Hes1 interaction fluorescent plate assay (Hes1 dimer formation inhibition); format: binding; settings: for remaining activity at 5 µM: 5 μM compound; for remaining activity at 100 µM: 100 μM compound
T1 construct: Glutathione-S-transferase (GST) fused rat Hes1(3–281) protein was expressed in Escherichia coli; GST (N, cleaved yes); GST (N); made in house; host or cells: Escherichia coli JM109 (pGEX-ratHes1 3-281)
T1 sequence (Q04666 3-281): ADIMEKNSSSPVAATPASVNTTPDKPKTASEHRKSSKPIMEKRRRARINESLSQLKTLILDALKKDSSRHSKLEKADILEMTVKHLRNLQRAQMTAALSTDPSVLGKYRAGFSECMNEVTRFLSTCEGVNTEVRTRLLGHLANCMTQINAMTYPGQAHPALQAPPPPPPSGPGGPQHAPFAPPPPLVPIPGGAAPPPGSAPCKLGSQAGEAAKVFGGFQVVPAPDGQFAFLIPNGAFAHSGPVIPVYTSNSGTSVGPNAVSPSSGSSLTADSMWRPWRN
Text: It is essential to inhibit undesired PPIs in drug development, and bioactivity-guided isolation using the inhibitory activity of PPIs is an attractive method to obtain effective inhibitors. However, currently there are only a few examples of such approaches using PPI assay systems[22],[23]. We previously developed a Hes1-Hes1 interaction fluorescent plate assay and reported the screening results of our natural products compound library (Fig. 2A)[24]. Glutathione-S-transferase (GST) fused rat Hes1(3–281) protein was expressed in Escherichia coli and purified rat Hes1 protein was immobilized on the bottom of 96 well plates. We prevented GST-GST interactions, which would result in false positives, by preparing GST-free Hes1 protein by GST cleavage with Turbo3C protease. After labeling Hes1 with Cy3, this florescent Hes1 protein was added to the wells of the above plate and incubated for 24 h at 4 °C. Hes1-Hes1 interaction was successfully detected as Cy3 fluorescence intensity. Using this assay system, we screened our 118 plant extract library and identified the MeOH extract of Psidium guajava leaves to contain naturally occurring compounds that inhibit Hes1 dimer formation. The MeOH extract (29.9 g) was fractionated using Diaion HP-20 with a MeOH-acetone solvent system to afford fractions 1A to 1C. Active fraction 1A (27.2 g) was suspended in 10% aq. MeOH and partitioned with hexane, EtOAc and BuOH to obtain hexane (1.1 g), EtOAc (5.7 g), BuOH (4.7 g) and aqueous (18.9 g) soluble fractions. Part of the active BuOH soluble fraction was subjected to ODS column chromatography and reverse-phase HPLC. Activity-guided separation yielded ten compounds (1–10; Fig. 3). The isolated compounds were identified as morin (1)[25], isoquercitrin (2)[26], methyl gallate (3)[27], (+)-catechin (4)[28],[29], dihydrophaseic acid (5)[30], quercetin (6)[26],[31], avicularin (7)[32],[33], gallic acid (8)[34], protocatechuic acid (9)[35] and 4-hydroxybenzoic acid (10)[36] based on comparisons of their spectral data with spectra in the literature.
Hes1-bound microplate wells[24] (Nunc Immobilizer^TM Amino Plate, Thermo) were incubated with 50 μL of Cy3-labeled-Hes1 in NET-N buffer (NET buffer (20 mM Tris-HCl, pH 7.5, 200 mM NaCl, 1 mM EDTA) containing 0.05% Nonidet® P-40, ca. 7 mg/L, dye/protein = 0.4) for 24 h at 4 °C. After removing the protein solution, the wells were washed twice with 200 μL of PBST, then each compound solution (in NET-N buffer, 50 μL) was added and the plates were incubated for 1 h at RT in the dark. The wells were washed twice with 200 μL of PBST, then dried under reduced pressure for 1 h in the dark. The Cy3 dye was excited at 544 nm and emission was monitored at 590 nm using a microplate reader (Fluoroskan Ascent, Thermo Labsystems, Vantaa, Finland). The assays were typically carried out in three individual wells, and the mean value and SD were calculated. The equilibrium between dimer formation between Cy3-Hes1/Cy3-Hes1 (in solution) and Cy3-Hes1/immobilized-Hes1 allowed the detection of Cy3-Hes1/immobilized-Hes1.
Typical procedure; Nunc Immobilizer^TM Amino 96 well Plate, white (Nalge Nunc Int., NY, USA) was used for immobilizing of Hes1. The micro plate wells were incubated with 100 µl of Hes1 (10 µg/mL in PBS) 2 h at 4 °C. After removing protein solution, the wells were incubated for 2 h at 4 °C with 100 µL of 10 mM ethanolamine (in 100 mM Na2CO3 buffer, pH 9.6) to block remaining activated units on the well. Then, wells were washed twice with 200 µL of PBST (PBS containing 0.05% Tween 20).
The Cy3 dye reagent was prepared as 1 vial of Cy3 monofunctional dye reagent (succinimidylester type; GE Healthcare, Buckinghamshire, UK) in DMSO (50 µL) and stored at -20 °C. Cy3-labeled Hes1 was prepared by mixing of protein in PBS with Cy3 dye reagent in DMSO (typically 0.6 µL of DMSO solution to 1 mL of 10 mg/L protein solution in PBS) for 30 min at 4 °C in the dark. […]

NSCs = settings: cited from earlier work
[2] = test system: C17.2 mouse neural stem cells; experiment: Neural stem cell differentiation assay (Tuj1/GFAP immunofluorescence staining); format: cell-based; settings: C17.2 cells, 6 days, positive control
Text: We recently developed another protein-based screening method, the target protein oriented natural products isolation method (TPO-NAPI) using protein beads (Fig. 2B). Agalloside, inohanamine, α-mangostine, BE-14106, isomicromonolactam, staurosporin and linarin were isolated as Hes1 binding compounds using the TPO-NAPI method[15],[17]. Rat Hes1 (1–95) containing basic and helix-loop-helix domains was immobilized because the helix-loop-helix domain is known to be important for Hes1-Hes1 interaction; therefore, utilizing this domain in the beads method would likely be effective for screening Hes1 dimer inhibitors. GST-Hes1 immobilized beads were prepared by mixing freshly prepared GST-Hes1 protein with glutathione Sepharose 4B beads. GST-only beads were prepared as a control. After incubating the beads with plant MeOH extracts at 4 °C for 2 h, bound compounds were eluted by adding EtOH and heating at 100 °C for 3 min, then the eluted compounds were analyzed by HPLC. […] The MeOH extract (64.6 g) of Terminalia chebula bark was partitioned with hexane, EtOAc and BuOH to obtain hexane (1.5 g), EtOAc (3.6 g), BuOH (42.6 g), and aqueous (20.5 g) soluble fractions. The EtOAc fraction contained the target peak and was subjected to silica gel column chromatography to give eight fractions (1A-H). Fraction 1D contained the target peak and was separated by ODS column chromatography and reverse-phase HPLC to give compound 11 (0.4 mg). Compound 11 was identified as 4-O-(4″-O-galloyl-α-L-rhamnopyranosyl)ellagic acid by comparison of its NMR data with reported spectral data[37]. […] This is the strongest Hes1 dimer inhibitor reported to date. The ability of 11 to accelerate the differentiation of C17.2 mouse neural stem cells was evaluated (Fig. 5). C17.2 cells (2 × 10^5 cells/mL) were seeded in a poly-L-lysine-coated 24 well plates and incubated for 24 h, then the cells were treated with DMSO (control), 100 μM valproic acid (VPA), 5 μM retinoic acid (RA) (positive controls) or 11 (1 or 5 μM) for 6 days. A confocal microscope was used to obtain images of differentiated neural cells after immunostaining class III β-tubulin (Tuj1) in neurons, and glial fibrillary acidic protein (GFAP) in astrocytes and nuclei (TO-PRO-3). […] In contrast, the control dish containing cells treated with DMSO contained small number of neurons.
C17.2 cells were cultured in proliferation medium [DMEM (DS Pharma Biomedical Co., Ltd. Osaka, Japan) supplemented with 10% fetal bovine serum (Biowest, Nuaillé, France), 5% horse serum (Gibco, Life Technologies, Tokyo, Japan)]. Neural differentiation of C17.2 cells was initiated by transferring the cells to differentiation medium [Neurobasal Medium (Gibco) supplemented with 2% B-27 without vitamin A (Gibco), 1% antibiotic-antimycotic (Gibco)]. All cultures were maintained in a humidified incubator at 37 °C in 5% CO2/95% air.
C17.2 cells were dissociated using the proliferation medium 2 × 10^5 cells/mL on cover glass (MATSUNAMI GLASS) coated with poly-L-lysine and fibronectin/laminin. After incubation for 24 h, cells were washed with D-MEM and treated with individual compounds in differentiation medium for 6 days.
C17.2 cells were fixed with 4% paraformaldehyde in PBS for 20 min at room temperature (r.t.) and washed with 1% BSA in PBS three times. After blocking with 10% BSA in 0.3% Triton X-100 in PBS for 45 min at r.t., fixed cells were incubated with primary antibodies (anti-βIII-Tubulin; Neuronal Class III, Mouse-Mono, 1:400, R&D Systems^TM; anti-GFAP, 1:400, VERITAS) for 12 h at 4 °C. After washing three times with 1% BSA in PBS (500 μL/well), cells were incubated with secondary antibodies (Alexa Fluor® 488 goat anti-mouse IgG (H + L), 1:400, Life Technologies; Alexa Fluor® 555 goat ant-rabbit IgG (H + L), 1:200, Life Technologies) for 1 hr at r.t. in the dark. […]

[3] = Hes1 dimer formation inhibitory activity IC50, Cy3-labeled Hes1 / immobilized Hes1, compound 1 h at RT
[4] = 24 h, 0 μM = 100, read-out: Hes1 dimer formation rate (%)
[5] = 24 h, 25 μM compound, 0 μM = 100, read-out: Hes1 dimer formation rate (%)
[6] = 24 h, 50 μM compound, 0 μM = 100, read-out: Hes1 dimer formation rate (%)
[7] = Cy3-labeled Hes1 / immobilized Hes1, compound 1 h at RT, read-out: Hes1 dimer formation inhibitory activity IC50
[8] = 24 h, 10 μM compound, 0 μM = 100, read-out: Hes1 dimer formation rate (%)
[9] = 24 h, read-out: Hes1 dimer formation rate (%)

Compound O=C(O)c1cc(O)c(O)c(O)c1 [Commercially available gallic acid, gallic acid, reference compound] has a pIC50 [1, 3] of 5.05.

In the case of O=c1c(O)c(-c2ccc(O)cc2O)oc2cc(O)cc(O)c12 [Compound 1, morin], the remaining activity at 5 µM [1, 4] was 89.7%, the remaining activity at 25 µM [1, 5] was 79.2% and the remaining activity at 50 µM [1, 6] was 37.8%. It also gave a pIC50 [1, 7] of 4.39.

For O=c1c(O[C@@H]2O[C@H](CO)[C@@H](O)[C@H](O)[C@H]2O)c(-c2ccc(O)c(O)c2)oc2cc(O)cc(O)c12 [Compound 2, isoquercitrin], the remaining activity at 20 µM ([1]; 24 h, 20 μM compound, 0 μM = 100, read-out: Hes1 dimer formation rate (%)) was 67.2%, the remaining activity at 60 µM ([1]; 24 h, 60 μM compound, 0 μM = 100, read-out: Hes1 dimer formation rate (%)) was 34.5% and the remaining activity at 80 µM ([1]; 24 h, 80 μM compound, 0 μM = 100, read-out: Hes1 dimer formation rate (%)) was 28.3%. It also gave a pIC50 [1, 7] of 4.45.

Work on COC(=O)c1cc(O)c(O)c(O)c1 [Compound 3, methyl gallate] yielded a remaining activity at 5 µM [1, 4] of 68.4%, a remaining activity at 10 µM [1, 8] of 54.3% and a remaining activity at 25 µM [1, 5] of 39.2%. It also gave a pIC50 [1, 7] of 4.90.

In the case of Oc1cc(O)c2c(c1)O[C@H](c1ccc(O)c(O)c1)[C@@H](O)C2 [Compound 4, (+)-catechin], the remaining activity at 25 µM [1, 5] was 95.4%, the remaining activity at 50 µM [1, 6] was 79.2% and the remaining activity at 100 µM [1, 4] was 78.8%.

With CC(C=CC1(O)C2(C)COC1(C)CC(O)C2)=CC(=O)O (stereo not drawn) [Compound 5, dihydrophaseic acid] the remaining activity at 25 µM [1, 5] was 125%, the remaining activity at 50 µM [1, 6] was 122% and the remaining activity at 100 µM [1, 4] was 127%.

In the case of O=c1c(O)c(-c2ccc(O)c(O)c2)oc2cc(O)cc(O)c12 [Compound 6, quercetin], the remaining activity at 30 µM ([1]; 24 h, 30 μM compound, 0 μM = 100, read-out: Hes1 dimer formation rate (%)) was 82.5%, the remaining activity at 40 µM ([1]; 24 h, 40 μM compound, 0 μM = 100, read-out: Hes1 dimer formation rate (%)) was 66.5% and the remaining activity at 50 µM [1, 6] was 35.7%. The pIC50 [1, 7] was 4.35.

O=c1c(O[C@@H]2O[C@@H](CO)[C@H](O)[C@H]2O)c(-c2ccc(O)c(O)c2)oc2cc(O)cc(O)c12 [Compound 7, avicularin] gave a remaining activity at 5 µM [1, 4] of 74.6%, a remaining activity at 25 µM [1, 5] of 51.3% and a remaining activity at 50 µM [1, 6] of 23.8%. The pIC50 [1, 7] was 4.58.

O=C(O)c1cc(O)c(O)c(O)c1 [Compound 8, gallic acid] showed a remaining activity at 5 µM [1, 4] of 53.9%, a remaining activity at 10 µM [1, 8] of 50.7% and a remaining activity at 25 µM [1, 5] of 26.2%. It also gave a pIC50 [1, 3] of 4.99.

For O=C(O)c1ccc(O)c(O)c1 [Compound 9, protocatechuic acid], the remaining activity at 10 µM [1, 9] was 61.7%, the remaining activity at 25 µM [1, 9] was 49.3% and the remaining activity at 50 µM [1, 9] was 44.9%. For the same compound, the pIC50 [1, 7] was 4.62.

Work on O=C(O)c1ccc(O)cc1 [Compound 10, 4-hydroxybenzoic acid] yielded a remaining activity at 25 µM [1, 5] of 58.8%, a remaining activity at 50 µM [1, 6] of 50.4% and a remaining activity at 100 µM [1, 4] of 39.8%. The pIC50 [1, 7] was 4.29.

For CCCC(=O)/C=C/C1=C(O)C(=O)c2cc(O)c(O)cc2C1=O [Lindbladione], the “differentiation of NSCs to neurons” value (NSCs) is listed as “accelerated the differentiation of NSCs to neurons”.

For CC1=C(/C=C/C(C)=C/C=C/C(C)=C/C(=O)O)C(C)(C)CCC1 [RA, retinoic acid, reference compound], the number of neurons ([2]; 5 μM) was “increased”.

For CCCC(CCC)C(=O)O [VPA, valproic acid, reference compound], the number of neurons ([2]; 100 μM) was “increased”.
